Assays:
Test in all cases: Fungicidal effect on infected agar nutrient media, colony diameter
Assay type in all cases: cell-based
[1] = system: Penicillium cyclopium; conditions: 7th day after treatment, untreated 26.5
In short: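 Agar media (70 mm diameter, 10 mm thick) infected with Penicillium cyclopium were treated with EC formulations at 1, 10, 100 and 1000 ppm active ingredient. Fungal colony diameter was measured on day 7 after treatment.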

[2] = system: Sclerotinia sclerotinia; conditions: 3rd day after treatment, untreated control 41.7
Procedure: Agar nutrient media (Diameter 70 MM, thickness 10 mm) infected by Sclerotonia sclerotinia suspension are treated with 20 EC formulations prepared according to Example 27 and comprising 1, 10, 100 and 1000 ppm, respectively of the active ingredient of the Formula I. The fungicidal effect of the compositions is evaluated on the 3rd day after treatment by measuring the diameter of the Fungi colonies.

[3] = system: Alternaria tenuis; conditions: 5th day after treatment, untreated control 36.8
In short: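 Agar media (70 mm diameter, 10 mm thick) infected with Alternaria tenuis, treated with EC formulations at 1, 10, 100 and 1000 ppm active ingredient. Fungicidal effect read on day 5 after treatment as fungal colony diameter.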

CC1COP(=S)(OCCBr)S1 (stereo not drawn) [Compound 8]
Diameter of colony (mm) ([1]; 1 ppm): 20.0 mm
Diameter of colony (mm) ([1]; 10 ppm): 18.3 mm
Diameter of colony (mm) ([1]; 100 ppm): 7.9 mm
Diameter of colony (mm) ([1]; 1000 ppm): 0 mm
Diameter of colony (mm) ([2]; 1 ppm): 37.6 mm
Diameter of colony (mm) ([2]; 10 ppm): 29.9 mm
Diameter of colony (mm) ([2]; 100 ppm): 1.0 mm
Diameter of colony (mm) ([2]; 1000 ppm): 0 mm
Diameter of colony (mm) ([3]; 1 ppm): 30.1 mm
Diameter of colony (mm) ([3]; 10 ppm): 26.1 mm
Diameter of colony (mm) ([3]; 100 ppm): 6.4 mm
Diameter of colony (mm) ([3]; 1000 ppm): 0 mm

CC1OP(=S)(OCCI)SC1C (stereo not drawn) [Compound 18]
Diameter of colony (mm) ([1]; 1 ppm): 25.2 mm
Diameter of colony (mm) ([1]; 10 ppm): 14.2 mm
Diameter of colony (mm) ([1]; 100 ppm): 6.3 mm
Diameter of colony (mm) ([1]; 1000 ppm): 0 mm
Diameter of colony (mm) ([2]; 1 ppm): 38.2 mm
Diameter of colony (mm) ([2]; 10 ppm): 28.0 mm
Diameter of colony (mm) ([2]; 100 ppm): 1.5 mm
Diameter of colony (mm) ([2]; 1000 ppm): 0 mm
Diameter of colony (mm) ([3]; 1 ppm): 35.8 mm
Diameter of colony (mm) ([3]; 10 ppm): 22.8 mm
Diameter of colony (mm) ([3]; 100 ppm): 5.3 mm
Diameter of colony (mm) ([3]; 1000 ppm): 0 mm

CC1CSP(=S)(OCCI)O1 (stereo not drawn) [Compound 6]
Diameter of colony (mm) ([1]; 1 ppm): 21.3 mm
Diameter of colony (mm) ([1]; 10 ppm): 17.3 mm
Diameter of colony (mm) ([1]; 100 ppm): 9.0 mm
Diameter of colony (mm) ([1]; 1000 ppm): 0 mm
Diameter of colony (mm) ([2]; 1 ppm): 39.3 mm
Diameter of colony (mm) ([2]; 10 ppm): 30.0 mm
Diameter of colony (mm) ([2]; 100 ppm): 1.0 mm
Diameter of colony (mm) ([2]; 1000 ppm): 0 mm
Diameter of colony (mm) ([3]; 1 ppm): 35.5 mm
Diameter of colony (mm) ([3]; 10 ppm): 21.0 mm
Diameter of colony (mm) ([3]; 100 ppm): 6.0 mm
Diameter of colony (mm) ([3]; 1000 ppm): 0 mm

CC(Br)COP1(=S)OC(C)CS1 (stereo not drawn) [Compound 23]
Diameter of colony (mm) ([1]; 1 ppm): 22.6 mm
Diameter of colony (mm) ([1]; 10 ppm): 15.8 mm
Diameter of colony (mm) ([1]; 100 ppm): 4.3 mm
Diameter of colony (mm) ([1]; 1000 ppm): 0 mm
Diameter of colony (mm) ([2]; 1 ppm): 36.9 mm
Diameter of colony (mm) ([2]; 10 ppm): 29.7 mm
Diameter of colony (mm) ([2]; 100 ppm): 3.6 mm
Diameter of colony (mm) ([2]; 1000 ppm): 0 mm
Diameter of colony (mm) ([3]; 1 ppm): 33.8 mm
Diameter of colony (mm) ([3]; 10 ppm): 24.1 mm
Diameter of colony (mm) ([3]; 100 ppm): 5.2 mm
Diameter of colony (mm) ([3]; 1000 ppm): 0 mm

CCOP1(=S)OCCS1 (stereo not drawn) [Compound 55]
Diameter of colony (mm) ([1]; 1 ppm): 21.9 mm
Diameter of colony (mm) ([1]; 10 ppm): 18.1 mm
Diameter of colony (mm) ([1]; 100 ppm): 8.0 mm
Diameter of colony (mm) ([1]; 1000 ppm): 0 mm
Diameter of colony (mm) ([2]; 1 ppm): 33.1 mm
Diameter of colony (mm) ([2]; 10 ppm): 28.2 mm
Diameter of colony (mm) ([2]; 100 ppm): 0 mm
Diameter of colony (mm) ([2]; 1000 ppm): 0 mm
Diameter of colony (mm) ([3]; 1 ppm): 32.4 mm
Diameter of colony (mm) ([3]; 10 ppm): 23.5 mm
Diameter of colony (mm) ([3]; 100 ppm): 5.2 mm
Diameter of colony (mm) ([3]; 1000 ppm): 0 mm

CCC(C)OP1(=S)OCCS1 (stereo not drawn) [Compound 49]
Diameter of colony (mm) ([1]; 1 ppm): 26.3 mm
Diameter of colony (mm) ([1]; 10 ppm): 20.3 mm
Diameter of colony (mm) ([1]; 100 ppm): 7.5 mm
Diameter of colony (mm) ([1]; 1000 ppm): 0 mm
Diameter of colony (mm) ([2]; 1 ppm): 37.2 mm
Diameter of colony (mm) ([2]; 10 ppm): 30.4 mm
Diameter of colony (mm) ([2]; 100 ppm): 4.0 mm
Diameter of colony (mm) ([2]; 1000 ppm): 0 mm
Diameter of colony (mm) ([3]; 1 ppm): 34.3 mm
Diameter of colony (mm) ([3]; 10 ppm): 25.9 mm
Diameter of colony (mm) ([3]; 100 ppm): 7.0 mm
Diameter of colony (mm) ([3]; 1000 ppm): 0 mm

CC(C)OP1(=S)OCCS1 (stereo not drawn) [Compound 57]
Diameter of colony (mm) ([1]; 1 ppm): 18.7 mm
Diameter of colony (mm) ([1]; 10 ppm): 20.0 mm
Diameter of colony (mm) ([1]; 100 ppm): 6.2 mm
Diameter of colony (mm) ([1]; 1000 ppm): 0 mm
Diameter of colony (mm) ([2]; 1 ppm): 37.8 mm
Diameter of colony (mm) ([2]; 10 ppm): 25.9 mm
Diameter of colony (mm) ([2]; 100 ppm): 0 mm
Diameter of colony (mm) ([2]; 1000 ppm): 0 mm
Diameter of colony (mm) ([3]; 1 ppm): 31.7 mm
Diameter of colony (mm) ([3]; 10 ppm): 26.0 mm
Diameter of colony (mm) ([3]; 100 ppm): 7.1 mm
Diameter of colony (mm) ([3]; 1000 ppm): 0 mm

CC(CI)OP1(=S)OC(C)C(C)S1 (stereo not drawn) [Compound 36]
Diameter of colony (mm) ([1]; 1 ppm): 23.2 mm
Diameter of colony (mm) ([1]; 10 ppm): 16.8 mm
Diameter of colony (mm) ([1]; 100 ppm): 7.2 mm
Diameter of colony (mm) ([1]; 1000 ppm): 0 mm
Diameter of colony (mm) ([2]; 1 ppm): 37.2 mm
Diameter of colony (mm) ([2]; 10 ppm): 26.9 mm
Diameter of colony (mm) ([2]; 100 ppm): 0 mm
Diameter of colony (mm) ([2]; 1000 ppm): 0 mm
Diameter of colony (mm) ([3]; 1 ppm): 32.5 mm
Diameter of colony (mm) ([3]; 10 ppm): 20.7 mm
Diameter of colony (mm) ([3]; 100 ppm): 4.3 mm
Diameter of colony (mm) ([3]; 1000 ppm): 0 mm

CC(Br)COP1(=S)OC(C)C(C)S1 (stereo not drawn) [Compound 41]
Diameter of colony (mm) ([1]; 1 ppm): 24.1 mm
Diameter of colony (mm) ([1]; 10 ppm): 16.4 mm
Diameter of colony (mm) ([1]; 100 ppm): 4.9 mm
Diameter of colony (mm) ([1]; 1000 ppm): 0 mm
Diameter of colony (mm) ([2]; 1 ppm): 37.6 mm
Diameter of colony (mm) ([2]; 10 ppm): 30.0 mm
Diameter of colony (mm) ([2]; 100 ppm): 2.6 mm
Diameter of colony (mm) ([2]; 1000 ppm): 0 mm
Diameter of colony (mm) ([3]; 1 ppm): 33.8 mm
Diameter of colony (mm) ([3]; 10 ppm): 25.1 mm
Diameter of colony (mm) ([3]; 100 ppm): 7.3 mm
Diameter of colony (mm) ([3]; 1000 ppm): 0 mm

CCC(C)OP1(=S)OC(C)C(C)S1 (stereo not drawn) [Compound 53, 2-(0-1'-methyl-n-propyl)-2-thio-4,5-dimethyl1,3,2-oxathiophospholane]
Diameter of colony (mm) ([1]; 1 ppm): 24.8 mm
Diameter of colony (mm) ([1]; 10 ppm): 19.2 mm
Diameter of colony (mm) ([1]; 100 ppm): 7.6 mm
Diameter of colony (mm) ([1]; 1000 ppm): 0 mm
Diameter of colony (mm) ([2]; 1 ppm): 35.8 mm
Diameter of colony (mm) ([2]; 10 ppm): 30.0 mm
Diameter of colony (mm) ([2]; 100 ppm): 3.8 mm
Diameter of colony (mm) ([2]; 1000 ppm): 0 mm
Diameter of colony (mm) ([3]; 1 ppm): 33.9 mm
Diameter of colony (mm) ([3]; 10 ppm): 25.4 mm
Diameter of colony (mm) ([3]; 100 ppm): 6.6 mm
Diameter of colony (mm) ([3]; 1000 ppm): 0 mm

S=P1(OCCI)OCCS1 (stereo not drawn) [Compound 3, 2-(O-2'-iodoethyl)-2-thio1,3,2-oxathiophospholane]
Diameter of colony (mm) ([1]; 1 ppm): 25.0 mm
Diameter of colony (mm) ([1]; 10 ppm): 18.6 mm
Diameter of colony (mm) ([1]; 100 ppm): 7.1 mm
Diameter of colony (mm) ([1]; 1000 ppm): 0 mm
Diameter of colony (mm) ([2]; 1 ppm): 37.4 mm
Diameter of colony (mm) ([2]; 10 ppm): 30.0 mm
Diameter of colony (mm) ([2]; 100 ppm): 2.1 mm
Diameter of colony (mm) ([2]; 1000 ppm): 0 mm
Diameter of colony (mm) ([3]; 1 ppm): 34.6 mm
Diameter of colony (mm) ([3]; 10 ppm): 22.4 mm
Diameter of colony (mm) ([3]; 100 ppm): 6.8 mm
Diameter of colony (mm) ([3]; 1000 ppm): 0 mm

CC(I)COP1(=S)OCC(C)S1 (stereo not drawn) [Compound 27]
Diameter of colony (mm) ([1]; 1 ppm): 23.8 mm
Diameter of colony (mm) ([1]; 10 ppm): 17.5 mm
Diameter of colony (mm) ([1]; 100 ppm): 4.6 mm
Diameter of colony (mm) ([1]; 1000 ppm): 0 mm
Diameter of colony (mm) ([2]; 1 ppm): 41.2 mm
Diameter of colony (mm) ([2]; 10 ppm): 28.6 mm
Diameter of colony (mm) ([2]; 100 ppm): 1.4 mm
Diameter of colony (mm) ([2]; 1000 ppm): 0 mm
Diameter of colony (mm) ([3]; 1 ppm): 33.5 mm
Diameter of colony (mm) ([3]; 10 ppm): 22.4 mm
Diameter of colony (mm) ([3]; 100 ppm): 8.8 mm
Diameter of colony (mm) ([3]; 1000 ppm): 0 mm

CC(Cl)COP1(=S)OCCS1 (stereo not drawn) [Compound 13, 2-(0-2'-methyl-2'-chloroethyl)-2-thio-1,3,2-oxathiophospholane]
Diameter of colony (mm) ([1]; 1 ppm): 24.5 mm
Diameter of colony (mm) ([1]; 10 ppm): 19.2 mm
Diameter of colony (mm) ([1]; 100 ppm): 7.5 mm
Diameter of colony (mm) ([1]; 1000 ppm): 0 mm
Diameter of colony (mm) ([2]; 1 ppm): 33.9 mm
Diameter of colony (mm) ([2]; 10 ppm): 32.1 mm
Diameter of colony (mm) ([2]; 100 ppm): 1.7 mm
Diameter of colony (mm) ([2]; 1000 ppm): 0 mm
Diameter of colony (mm) ([3]; 1 ppm): 32.2 mm
Diameter of colony (mm) ([3]; 10 ppm): 25.8 mm
Diameter of colony (mm) ([3]; 100 ppm): 5.1 mm
Diameter of colony (mm) ([3]; 1000 ppm): 0 mm

CCCOP1(=S)OCCS1 (stereo not drawn) [Compound 46, 2-(0-n-propyl)-2-thio-1,3,2-oxathiophospholane]
Diameter of colony (mm) ([1]; 1 ppm): 25.1 mm
Diameter of colony (mm) ([1]; 10 ppm): 18.9 mm
Diameter of colony (mm) ([1]; 100 ppm): 7.9 mm
Diameter of colony (mm) ([1]; 1000 ppm): 0 mm
Diameter of colony (mm) ([2]; 1 ppm): 34.6 mm
Diameter of colony (mm) ([2]; 10 ppm): 28.7 mm
Diameter of colony (mm) ([2]; 100 ppm): 4.2 mm
Diameter of colony (mm) ([2]; 1000 ppm): 0 mm
Diameter of colony (mm) ([3]; 1 ppm): 34.2 mm
Diameter of colony (mm) ([3]; 10 ppm): 24.3 mm
Diameter of colony (mm) ([3]; 100 ppm): 5.8 mm
Diameter of colony (mm) ([3]; 1000 ppm): 0 mm

Source: US4877893A, “Process for the preparation of 2-(O-alkyl)-2-thio-1,3,2-oxathiophospholanes” (priority 1987, dated 1989)
